ChEMBL document CHEMBL5528048, “Discovery of Novel Potent and Fast BTK PROTACs for the Treatment of Osteoclasts-Related Inflammatory Diseases” (J Med Chem, 2024)
The source made the active and inactive calls. The calls are words filed in the database; no cut-off is given here.

Tests used:
[1] = target: T1, Protein cereblon/Tyrosine-protein kinase BTK (Mus musculus) (UniProt P35991+Q8C7D2); assay: PROTAC activity at BTK/CRBN in mCSF/RANKL-stimulated C57BL/6J mouse BMDM assessed as reduction in phosphorylated PLCgamma2 protein level at 25 to 100 nM followed by stimulated with mCSF/RANKL measured after 2 hrs by Western blotting analysis; format: cell-based; conditions: dose 25-100 nM
T1 sequence (P35991 whole entry, looked up): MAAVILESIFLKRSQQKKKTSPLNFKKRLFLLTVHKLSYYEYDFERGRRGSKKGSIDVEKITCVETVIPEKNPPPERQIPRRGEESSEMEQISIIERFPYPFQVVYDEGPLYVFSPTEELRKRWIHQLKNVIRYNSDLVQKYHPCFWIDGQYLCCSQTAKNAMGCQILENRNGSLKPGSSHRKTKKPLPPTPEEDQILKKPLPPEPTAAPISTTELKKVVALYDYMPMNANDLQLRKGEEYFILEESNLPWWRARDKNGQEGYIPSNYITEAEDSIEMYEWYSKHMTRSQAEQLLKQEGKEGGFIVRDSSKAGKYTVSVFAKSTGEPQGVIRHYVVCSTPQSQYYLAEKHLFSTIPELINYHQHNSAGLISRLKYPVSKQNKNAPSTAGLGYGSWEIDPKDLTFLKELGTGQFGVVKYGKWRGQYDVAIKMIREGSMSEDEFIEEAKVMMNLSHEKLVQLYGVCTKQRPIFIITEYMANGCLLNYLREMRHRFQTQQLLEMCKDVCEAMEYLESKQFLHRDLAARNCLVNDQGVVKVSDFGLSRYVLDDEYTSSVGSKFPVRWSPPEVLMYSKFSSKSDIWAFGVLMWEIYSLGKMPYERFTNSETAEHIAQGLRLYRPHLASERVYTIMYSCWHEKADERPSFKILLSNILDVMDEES
T1 sequence (Q8C7D2 whole entry, looked up): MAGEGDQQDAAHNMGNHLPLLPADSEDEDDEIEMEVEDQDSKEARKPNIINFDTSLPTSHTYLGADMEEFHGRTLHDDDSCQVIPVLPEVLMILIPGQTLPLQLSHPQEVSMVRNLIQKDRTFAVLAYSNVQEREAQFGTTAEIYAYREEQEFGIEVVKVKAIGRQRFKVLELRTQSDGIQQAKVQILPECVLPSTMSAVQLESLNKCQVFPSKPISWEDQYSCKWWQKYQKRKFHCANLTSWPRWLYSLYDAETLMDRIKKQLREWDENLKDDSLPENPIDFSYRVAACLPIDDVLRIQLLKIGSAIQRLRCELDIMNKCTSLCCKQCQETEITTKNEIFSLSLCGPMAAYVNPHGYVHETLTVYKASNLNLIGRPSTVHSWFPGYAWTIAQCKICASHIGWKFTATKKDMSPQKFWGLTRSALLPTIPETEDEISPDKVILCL

[2] = Clearance in Sprague-Dawley rat at 4 mg/kg, ip measured upto 48 hrs; conditions: in vivo
[3] = Half life in Sprague-Dawley rat at 2 mg/kg, iv measured upto 48 hrs; format: ADME, organism-based; conditions: in vivo
BMMC [4] = assay: Inhibition of RANKKL-induced upregulation of osteoclast related genes in C57BL/6J mouse BMM cells assessed as reduction in mCSF/RANKL-stimulated CTSK gene expression at 25 to 100 nM followed by stimulated with mCSF/RANKL measured after 2 hrs by qPCR analysis; format: functional, cell-based; conditions: dose 25-100 nM
[5] = AUC (0 to infinity) in Sprague-Dawley rat at 2 mg/kg, iv measured upto 48 hrs; format: ADME, organism-based; conditions: in vivo
[6] = target: T1, Protein cereblon/Tyrosine-protein kinase BTK (Mus musculus); assay: PROTAC activity at BTK/CRBN in C57BL/6J mouse BMM cells assessed as reduction in mCSF/RANKL-stimulated c-Fos protein expression at 25 to 100 nM followed by stimulated with mCSF/RANKL measured after 2 hrs by Western blot analysis; format: cell-based; conditions: BMDM, dose 25-100 nM
[7] = target: T2, Protein cereblon/Tyrosine-protein kinase BTK (Homo sapiens, UniProt Q06187+Q96SW2); assay: PROTAC activity at BTK/CRBN in human MINO cells assessed as BTK protein degradation pretreated with 2 uM MG132 followed by 1 hr treated at 20 nM measured after 48 hrs by Western blotting analysis; format: cell-based; conditions: dose […]
Target sequence in this assay (Q06187 2-659 limits assumed): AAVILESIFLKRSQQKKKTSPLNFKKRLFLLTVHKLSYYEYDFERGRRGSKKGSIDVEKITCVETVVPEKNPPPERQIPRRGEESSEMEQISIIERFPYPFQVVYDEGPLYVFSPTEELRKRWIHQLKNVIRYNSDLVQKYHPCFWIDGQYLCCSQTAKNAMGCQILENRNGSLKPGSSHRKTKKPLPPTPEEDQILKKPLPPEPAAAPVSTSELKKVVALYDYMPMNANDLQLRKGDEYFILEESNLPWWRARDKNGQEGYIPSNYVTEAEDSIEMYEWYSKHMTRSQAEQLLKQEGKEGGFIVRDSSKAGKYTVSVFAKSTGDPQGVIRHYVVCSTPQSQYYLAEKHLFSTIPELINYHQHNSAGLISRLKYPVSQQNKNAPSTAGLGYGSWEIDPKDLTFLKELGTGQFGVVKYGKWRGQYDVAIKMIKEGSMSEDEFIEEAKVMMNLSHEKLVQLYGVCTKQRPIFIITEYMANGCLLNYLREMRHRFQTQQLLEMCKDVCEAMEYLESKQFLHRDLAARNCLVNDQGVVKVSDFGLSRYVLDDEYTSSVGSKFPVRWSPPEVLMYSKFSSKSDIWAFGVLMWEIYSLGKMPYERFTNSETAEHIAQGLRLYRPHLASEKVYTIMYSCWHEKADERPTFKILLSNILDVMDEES
Target sequence in this assay (Q96SW2 whole entry partner): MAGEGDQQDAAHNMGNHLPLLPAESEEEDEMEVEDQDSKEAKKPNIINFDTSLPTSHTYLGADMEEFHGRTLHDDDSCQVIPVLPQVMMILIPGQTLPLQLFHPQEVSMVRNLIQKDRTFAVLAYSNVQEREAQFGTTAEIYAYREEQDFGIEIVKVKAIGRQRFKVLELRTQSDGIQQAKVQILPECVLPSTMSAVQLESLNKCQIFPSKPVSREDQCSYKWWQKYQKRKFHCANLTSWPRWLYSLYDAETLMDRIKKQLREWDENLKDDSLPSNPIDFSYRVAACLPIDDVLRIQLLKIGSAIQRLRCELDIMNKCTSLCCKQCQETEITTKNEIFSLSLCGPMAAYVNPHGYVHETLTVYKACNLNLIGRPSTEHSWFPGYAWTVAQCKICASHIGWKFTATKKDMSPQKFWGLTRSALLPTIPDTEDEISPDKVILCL

BMMC [8] = assay: Inhibition of RANKKL-induced upregulation of osteoclast related genes in C57BL/6J mouse BMM cells assessed as reduction in mCSF/RANKL-stimulated Dcstamp-gene expression at 25 to 100 nM followed by stimulated with mCSF/RANKL measured after 2 hrs by qPCR analysis; format: functional, cell-based; conditions: dose 25-100 nM
[9] = target: T1, Protein cereblon/Tyrosine-protein kinase BTK (Mus musculus); assay: PROTAC activity at BTK/CRBN in mCSF/RANKL-stimulated C57BL/6J mouse BMDM assessed as BTK protein degradation at 25 to 100 nM followed by stimulated with mCSF/RANKL measured after 2 hrs by Western blotting analysis; format: cell-based; conditions: dose 25-100 nM
[10] = target: T2, Protein cereblon/Tyrosine-protein kinase BTK; assay: Binding affinity to BTK/CRBN (unknown origin) assessed as ternary complex formation measured after 60 mins incubation by HTRF assay
Target sequence in this assay (Q06187 whole entry): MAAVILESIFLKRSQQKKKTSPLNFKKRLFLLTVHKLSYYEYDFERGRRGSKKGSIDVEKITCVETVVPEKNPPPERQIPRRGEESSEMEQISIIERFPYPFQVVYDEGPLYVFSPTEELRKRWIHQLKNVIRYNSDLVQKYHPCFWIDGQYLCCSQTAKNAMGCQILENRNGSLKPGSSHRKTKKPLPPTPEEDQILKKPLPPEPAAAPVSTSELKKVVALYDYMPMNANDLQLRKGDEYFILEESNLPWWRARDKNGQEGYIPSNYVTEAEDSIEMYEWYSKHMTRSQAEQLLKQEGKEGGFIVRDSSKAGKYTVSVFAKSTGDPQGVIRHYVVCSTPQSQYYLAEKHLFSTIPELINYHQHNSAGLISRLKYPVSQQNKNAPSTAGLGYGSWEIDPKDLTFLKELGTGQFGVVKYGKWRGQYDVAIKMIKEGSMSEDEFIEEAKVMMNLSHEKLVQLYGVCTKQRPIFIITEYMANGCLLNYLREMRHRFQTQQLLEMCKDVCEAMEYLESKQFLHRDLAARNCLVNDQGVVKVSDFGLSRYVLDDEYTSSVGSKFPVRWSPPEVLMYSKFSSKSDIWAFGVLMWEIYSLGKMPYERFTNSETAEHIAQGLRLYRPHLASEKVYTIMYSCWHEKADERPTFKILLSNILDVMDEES
Target sequence in this assay (Q96SW2 whole entry): as the sequence (Q96SW2 whole entry partner) above

[11] = target: T2, Protein cereblon/Tyrosine-protein kinase BTK; assay: PROTAC activity at BTK/CRBN in human MINO cells assessed as BTK protein degradation at 20 nM measured after 2 hrs by Western blotting analysis; format: cell-based
Target sequence in this assay (Q06187 2-659 limits assumed): as the sequence (Q06187 2-659 limits assumed) above
Target sequence in this assay (Q96SW2 whole entry partner): as the sequence (Q96SW2 whole entry partner) above

[12] = target: T2, Protein cereblon/Tyrosine-protein kinase BTK; assay: PROTAC activity at BTK/CRBN in human MINO cells assessed as BTK protein degradation at 100 nM measured after 24 hrs by Western blotting analysis relative to control; format: cell-based
Target sequence in this assay (Q06187 2-659 limits assumed): as the sequence (Q06187 2-659 limits assumed) above
Target sequence in this assay (Q96SW2 whole entry partner): as the sequence (Q96SW2 whole entry partner) above

[13] = Cmax in Sprague-Dawley rat at 2 mg/kg, iv measured upto 48 hrs; format: ADME, organism-based; conditions: in vivo
BMMC [14] = assay: Inhibition of osteoclastogenesis in C57BL/6J mouse BMM cells assessed as inhibition of mCSF/RANKL-stimulated matured osteoclast formation measured after 5 days co-incubation by tartrate-resistant acid phosphatase (TRAP) staining assay; format: functional, cell-based; conditions: time 5.0 day
Mus musculus [15] = assay: Antiosteoclastogenic effects in LPS-soaked ligature-induced C57BL/6J mouse periodontal disease model assessed as reduction in periodontal alveolar bone loss at 30 mg/kg, ip treated on day 0, 1,4, 7 and measured on day 10 by Micro-CT 3D scan; format: functional, organism-based; conditions: time 7.0 day
Mus musculus [16] = assay: Antiosteoclastogenic effects in LPS-soaked ligature-induced C57BL/6J mouse periodontal disease model assessed as reduction in periodontal alveolar bone loss by measuring increase in bone volume per tissue volume (BV/TV%) at 10 to 30 mg/kg, ip treated on day 0, 1,4, 7 and measured on day 10 by Micro-CT 3D scan; format: functional, organism-based; conditions: dose 10-30 mg/kg, time 7.0 day
[17] = target: T2, Protein cereblon/Tyrosine-protein kinase BTK; assay: PROTAC activity at BTK/CRBN in human MINO cells assessed as BTK protein degradation pretreated with 2 uM pomalidomide followed by 1 hr treated at 20 nM measured after 48 hrs by Western blotting analysis; format: cell-based; conditions: dose […]
Target sequence in this assay (Q06187 2-659 limits assumed): as the sequence (Q06187 2-659 limits assumed) above
Target sequence in this assay (Q96SW2 whole entry partner): as the sequence (Q96SW2 whole entry partner) above

[18] = AUC (0 to infinity) in Sprague-Dawley rat at 4 mg/kg, ip measured upto 48 hrs; format: ADME, organism-based; conditions: in vivo
[19] = Clearance in Sprague-Dawley rat at 2mg/kg, iv measured upto 48 hrs; format: ADME, organism-based; conditions: in vivo
[20] = target: T2, Protein cereblon/Tyrosine-protein kinase BTK; assay: Binding affinity to BTK/CRBN (unknown origin) assessed as ternary complex formation by measuring peak concentration measured after 60 mins incubation by HTRF assay
Target sequence in this assay (Q06187 2-659 limits assumed): as the sequence (Q06187 2-659 limits assumed) above
Target sequence in this assay (Q96SW2 whole entry partner): as the sequence (Q96SW2 whole entry partner) above

[21] = target: T2, Protein cereblon/Tyrosine-protein kinase BTK; assay: PROTAC activity at BTK/CRBN in human MINO cells assessed as BTK protein degradation pretreated with 2 uM ibrutinib followed by 1 hr treated at 20 nM measured after 48 hrs by Western blotting analysis; format: cell-based; conditions: dose […]
Target sequence in this assay (Q06187 2-659 limits assumed): as the sequence (Q06187 2-659 limits assumed) above
Target sequence in this assay (Q96SW2 whole entry partner): as the sequence (Q96SW2 whole entry partner) above

[22] = target: Tyrosine-protein kinase BTK (Homo sapiens, UniProt Q06187); assay: Inhibition of BTK (unknown origin) measured after 60 mins incubation by microtiter-plate reader
Chain of Tyrosine-protein kinase BTK (Q06187 whole entry): as the sequence (Q06187 whole entry) above

BMMC [23] = assay: Inhibition of RANKKL-induced upregulation of osteoclast related genes in C57BL/6J mouse BMM cells assessed as reduction in mCSF/RANKL-stimulated TRAP gene expression at 25 to 100 nM followed by stimulated with mCSF/RANKL measured after 2 hrs by qPCR analysis; format: functional, cell-based; conditions: dose 25-100 nM
Mus musculus [24] = assay: Antiosteoclastogenic effects in LPS-soaked ligature-induced C57BL/6J mouse periodontal disease model assessed as reduction in periodontal alveolar bone loss at 10 mg/kg, ip treated on day 0, 1,4, 7 and measured on day 10 by Micro-CT 3D scan; format: functional, organism-based; conditions: time 7.0 day
BMMC [25] = assay: Inhibition of RANKKL-induced upregulation of osteoclast related genes in C57BL/6J mouse BMM cells assessed as reduction in mCSF/RANKL-stimulated NFATc1 gene expression at 25 to 100 nM followed by stimulated with mCSF/RANKL measured after 2 hrs by qPCR analysis; format: functional, cell-based; conditions: dose 25-100 nM
[26] = Bioavailability in Sprague-Dawley rat at 4 mg/kg, ip measured upto 48 hrs; format: ADME, organism-based; conditions: in vivo
[27] = Half life in Sprague-Dawley rat at 4 mg/kg, ip measured upto 48 hrs; format: ADME, organism-based; conditions: in vivo
[28] = AUC (0 to t) in Sprague-Dawley rat at 2 mg/kg, iv measured upto 48 hrs; format: ADME, organism-based; conditions: in vivo
[29] = target: T2, Protein cereblon/Tyrosine-protein kinase BTK; assay: PROTAC activity at BTK/CRBN in human MINO cells assessed as BTK protein degradation measured for 4 hrs by Western blotting analysis; format: cell-based
Target sequence in this assay (Q06187 whole entry): as above
Target sequence in this assay (Q96SW2 whole entry): as the sequence (Q96SW2 whole entry partner) above

[30] = target: T2, Protein cereblon/Tyrosine-protein kinase BTK; assay: PROTAC activity at BTK/CRBN in human MINO cells assessed as BTK protein degradation at 20 nM measured after 24 hrs by Western blotting analysis relative to control; format: cell-based
BMMC [31] = assay: Cytotoxicity against C57BL/6J mouse BMM cells assessed as cell viability at 10 uM measured after 1 to 2 hrs by CCK8 assay; format: toxicity, cell-based; conditions: time 1-2 hrs
[32] = Apparent volume of distribution in Sprague-Dawley rat at 4 mg/kg, ip measured upto 48 hrs; format: ADME, organism-based; conditions: in vivo

Cc1cc(-c2nc(Nc3cnn(C4CCN(CC5CCN(c6ccc7c(c6)C(=O)N(C6CCC(=O)NC6=O)C7=O)CC5)CC4)c3)ncc2F)ccc1CNC(=O)c1cn(C(C)(C)C)nn1 (configuration not stated)
Activity [1]: Active | CL/F at 48 h [2]: 25.8 mL/min/kg | half-life [3]: 7.03 h | inhibition (BMMC [4]): Active | AUC(0-inf) [5]: 2350 ng·h/mL | Activity [6]: Active | Activity [7]: inactive | inhibition (BMMC [8]): Active | Activity [9]: inactive | EC50 [10]: 4.28 nM | Activity [11]: Active | Activity [12]: 99% | Cmax [13]: 645 ng/mL | inhibition (BMMC [14]): Active | Activity (Mus musculus [15]): Active | Activity (Mus musculus [16]): Active | Activity [17]: inactive | AUC(0-inf) [18]: 3090 ng·h/mL | clearance [19]: 15.2 mL/min/kg | Activity [20]: 12.3 nM | Activity [21]: inactive | IC50 [22]: 299 nM | inhibition (BMMC [23]): Active | Activity (Mus musculus [24]): Active | Activity (BMMC [25]): Active | bioavailability [26]: 65.7% | half-life [27]: 13.6 h | AUC(0-t) at 48 h [28]: 2340 ng·h/mL | DC50 [29]: 1.29 nM | Activity [30]: 99% | Activity (BMMC [31]): Non-Toxic | Vz [32]: 30.04 L/kg
